The results in this text go back to US8728797B2, “Yeast membrane protein expression system and its application in drug screening” (priority 2001, dated 2014).

Test [1] deals with S. cerevisiae AD1002 expressing C. albicans Cdr1p. Kind of test: MIC microdilution test, strain expressing Cdr1p. Format: cell-based. The procedure:
(§1) The MICs of antifungal agents for S. cerevisiae cells were determined by a microdilution test based on the macrodilution reference method of the National Committee for Clinical Laboratory Standards. Cells (10 μl cell suspension, 2×10^5 cells/ml) were inoculated into 90 μl CSM-URA, buffered with 10 mM 2-(N-morpholino)ethanesulfonic acid (MES) and 18 mM N-2-hydroxyethylpiperazine-N′-2-ethanesulfonic acid (HEPES), pH 7.0 and containing 0.67% (w/v) yeast nitrogen base (YNB) in microtitre plate wells. For the uracil-requiring strain AD1-8u^− the medium was supplemented with 0.02% (w/v) uridine. The wells contained, in […], doubling dilutions of antifungal agents (final concentrations: fluconazole, 40-0.078 μg/ml; itraconazole and ketoconazole, 8-0.016 μg/ml). The microtitre plates were incubated at 30° C. for 48 h with shaking and then the growth of cells in individual wells (OD590) was measured with a microplate reader (EL 340, Bio-Tek, Winooski, Vt.). The MIC80 was the lowest concentration of drug that inhibited growth yield by at least 80% compared to a no-drug control.
(In broth dilution the organism is exposed to a series of concentrations in liquid medium.)

The next test deals with S. cerevisiae AD1-8/CDR2. Nature of the test: MIC microdilution test, strain expressing Cdr2p. The class given is cell-based. To be noted: Saccharomyces cerevisiae, AD18/CDR2, 30° C. The procedure: as §1
The subject of test [2] is S. cerevisiae AD1-8 sec6-4. Kind of test: MIC microdilution test, sec6-4 host. Format: cell-based. To be noted: Saccharomyces cerevisiae, AD18SEC64, 30° C. The procedure:
as §1

Test [3] concerns SfiI-containing construct expressing Pdr5p. Kind of test: MIC, SfiI-containing Pdr5p construct. The class given is cell-based, S. cerevisiae. To be noted: low Pdr5p expression. The procedure:
as §1

Test [4] deals with initial construct in AD1-8u^− with barely detectable Cdr1p. Nature of the test: MIC, initial defective Cdr1p construct. The class given is cell-based, S. cerevisiae. To be noted: Saccharomyces cerevisiae. The procedure:
as §1

The subject of test [5] is selected respiratory competent construct expressing Cdr1p. Nature of the test: MIC, corrected Cdr1p construct. Format: cell-based, S. cerevisiae. To be noted: Saccharomyces cerevisiae; construct corrected with linear PCR fragment. Here is the method:
as §1

Another test deals with C. albicans ATCC10261. Kind of test: Checkerboard chemosensitisation to fluconazole. Format: cell-based. Here is the method: (§2) (A) Checkerboard drug susceptibility assay of AD1002. This assay was conducted as described in Materials and methods in the presence of the indicated concentrations of fluconazole and KN20. (B) Disk drug susceptibility assay of AD1002. This assay was conducted, as described in Materials and methods for Example 4, in the absence or presence of 5 μg/ml fluconazole, with (1) KN0 (12 nanomole), (2) KN20 (12 nanomole) or (0) control amounts of DMSO applied to the disks. (C) Checkerboard drug susceptibility assay of ATCC 10261. This assay was conducted, as described in Material and methods for Example 4, in the presence of the indicated concentrations of fluconazole and KN20. D indicates cell death as measured by a failure to recover any colony forming units when samples from microtitre plate wells were cultured on solid YPD medium.
(§3) Checkerboard drug susceptibility assays were used to measure the chemosensitisation of cells to fluconazole by test compounds such as Pdr5p inhibitors. Fluconazole concentration in the CSM-URA medium was varied in one dimension (between 0 and 80 μg/ml) and the concentration of the test compound was varied in the second dimension (between 0 and 40 μM). Cell inocula, growth conditions and the optical determination of growth were identical to standard liquid MIC determinations. The assays were conducted in 6 by 6 well arrays centred in a 96 well microtitre plate using buffered CSM-URA medium at pH 7.0, with fluconazole and/or peptide included in each well at the indicated concentration.

For test [6], the system named is S. cerevisiae AD1002 (CaCdr1p). Nature of the test: Checkerboard chemosensitisation to fluconazole. The class given is cell-based. The procedure:
as §2, §3

The subject of another test is AD1002 cells. Kind of test: Glucose-dependent rhodamine 6G efflux. Format: cell-based, S. cerevisiae. To be noted: fluconazole 10 μM in preincubation and all later steps; 10 min after glucose.
Another test has as its system Cdr1p ATPase. Nature of the test: Oligomycin sensitive ATPase/NTPase activity of AD1002 plasma membranes. The class given is biochemical, C. albicans. To be noted: ratio of inhibitory concentrations Cdr1p/Pdr5p. Here is the method:
Membrane fractions were isolated from S. cerevisiae AD1002 (▪) or parental AD1-8u^− cells (●). ATPase assays were carried out at 30° C. for 30 min, as described in Materials and methods for Example 2. The oligomycin-sensitive activity was determined as the difference in ATPase activity in the presence and absence of 20 μM oligomycin. […] The results are the means (+/−SD) of four determinations carried out on two membrane preparations.
(B) Inhibition profile with KN20 on the oligomycin-sensitive Cdr1p ATPase activity of plasma membranes from AD1002 minus the oligomycin-sensitive ATPase activity of plasma membranes from the isogenic AD1-8u^− strain.
Yeast were grown in YEPD, pH 5.5 at 30° C. until they reached late-exponential phase of growth (OD600 nm=7), washed twice in ice-cold distilled water, and incubated on ice for 30 min to minimize glucose-stimulated Pma1p activity. Cells were resuspended in homogenising medium (50 mM Tris pH 7.5, 2 mM EDTA and 1 mM phenylmethylsulfonyl fluoride) and disrupted using a Braun Homogeniser. Cell debris and unbroken cells were removed by centrifuging at 2,000×g at 4° C. for 10 min. A crude membrane fraction was isolated from the cell-free supernatant by centrifuging at 30,000×g at 4° C. for 45 min. Plasma membranes were prepared by centrifugation of the supernatant obtained after selective precipitation of mitochondria at pH 5.2 as described previously (Goffeau, A. and Dufour, J. P., 1988). The plasma membranes were resuspended in 10 mM Tris pH 7.0, 0.5 mM EDTA and 20% [v/v] glycerol and stored at −80° C. Protein was determined using a micro-Bradford (Bio-Rad Laboratories, Hercules, Calif. [Bradford, M. M., 1976]) assay with gamma-globulin as standard. Nucleotide triphosphatase activity was measured by incubating the plasma membrane fractions (10 μg) at 30° C. in a final volume of 120 μl containing 6 mM NTP, 7 mM MgSO4 in 59 mM MES-Tris buffer pH 6.0-8.0. To eliminate possible contributions from nonspecific phosphatases, vacuolar, or mitochondrial ATPases, 0.2 mM ammonium molybdate, 50 mM KNO3 and 10 mM NaN3, respectively, were included in assays (Monk B C, et al, 1991). Other ATPase inhibitors (20 μM oligomycin, 20 μM aurovertin B or 100 μM vanadate were added to the reaction where indicated. After 30 min the reaction was stopped by adding 130 μl of a solution containing 1% (w/v) SDS, 0.6 M H2SO4, 1.2% (w/v) ammonium molybdate and 1.6% (w/v) ascorbic acid. Inorganic phosphate released from NTPs was measured at 750 nm after 10 min incubation at room temperature.

≈ marks a conversion by molar mass, not a printed value. Marks after values point to notes of the source that are not given here.

Procedure for AD1002 cells: The efflux of rhodamine 6G at 30° C. was followed by direct measurement of fluorescence in cell supernatants following glucose (2 mM) addition to cell suspensions. […] The indicated concentrations of KN20 were added to AD124567 cells preloaded with rhodamine 6G, the cells were preincubated for 5 minutes at 30° C. and glucose added to commence rhodamine efflux.
A previously described method (Kolaczkowski, M et al. 1996) was adapted to measure rhodamine 6G (Sigma) efflux from whole cells. Yeast cells from exponentially growing cultures in YEPD (OD600 nm=0.5) were collected by centrifugation (3,000×g, 5 min, 20° C.) and washed three times with water. The washed cells were resuspended at a concentration of 0.5×10^6 to 1.0×10^7 cells per ml in HEPES-NaOH (50 mM, pH 7.0) containing 5 mM 2-deoxyglucose and 10 μM rhodamine 6G. In some experiments fluconazole (10 μM) was also added. Cell suspensions were incubated at 30° C. with shaking for 90 min to allow rhodamine accumulation under glucose starvation conditions. The starved cells were washed twice in 50 mM HEPES-NaOH pH 7.0, and portions (400 μl) incubated at 30° C. for 5 min before addition of glucose (final concentration 2 mM) to initiate rhodamine efflux. […] The rhodamine 6G fluorescence of samples was measured using a Cary Eclipse spectrofluorimeter (Varian Inc, Victora Australia). […]

The MIC80 is an inhibitory concentration at the 80% level, which refers to growth in some studies and to a panel of isolates in others. For the compound `OC(Cn1cncn1)(Cn1cncn1)c1ccc(F)cc1F` [fluconazole], the MIC80 in test [1] (AD1002 expressing Cdr1p, 30° C., 48 h, pH 7.0) was determined as 30 µg/mL (≈ 98 µM); in the test with S. cerevisiae AD1-8/CDR2, 64 µg/mL (≈ 209 µM); in [2], 0.5 µg/mL (≈ 1.63 µM). Further, in test [1] (AD1002 relative to parental AD1-8u^−), the “fold increase in MIC” value is over 45 fold. The results for the MIC in [3], in [4] and in [5] were under 40 mu.g/ml, 20 µg/mL (≈ 65.3 µM) and 400 µg/mL (≈ 1310 µM), respectively. For the same compound, the “Chemosensitising concentration FCZ” value worked out at 2 µg/mL in the test with C. albicans ATCC10261 and 10 µg/mL in test [6] (AD1002 (CaCdr1p), with KN20). Besides, the “reduction in the concentration of released rhodamine 6G” value in the test on AD1002 cells is recorded as 32%.
“D-octapeptide NH2-Asn-Trp-Trp-Lys-Val-Arg-Arg-Arg-CONH2 with a single 4-methoxy-2,3,6-trimethylbenzenesulphonyl (Mtr) substituent on one tryptophan sidechain; Pdr5p inhibitor [KN20]”: the “Cdr1p ATPase inhibition concentration relative to Pdr5p ATPase” value in the test on Cdr1p ATPase is listed as 2.7 fold. For the same compound, the results for the “Chemosensitising concentration KN20” value (in the test on C. albicans ATCC10261 (C. albicans ATCC10261); in test [6] (AD1002 (CaCdr1p))) were 80 µM and 10 µM, respectively. Also, the “Fold-sensitisation by KN20 (For FCZ MIC)” value in the test with C. albicans ATCC10261 (C. albicans ATCC10261, resistant tail eliminated) was 64^a fold; in test [6] (AD1002 (CaCdr1p)), 4 fold. The “growth of AD1002 with KN20 alone” value in test [6] (10 μM KN20, without fluconazole, pH 7.0) is “completely resistant”; in [6] (20 μM peptide alone, 48 h), “did not affect overall growth”. For the same compound, the “growth of AD1002 with fluconazole plus KN20” value in test [6] (10 μg/ml fluconazole plus 10 μM KN20) is “completely abolished growth”.
